In brackets after ≈: the same amount, converted by molar mass. Like-named read-outs stand apart in the source and are kept apart here.
Test system: M. tuberculosis H37Rv (ATCC 27294)
Assay: Microplate Alamar Blue assay (MABA), MIC against replicating M. tuberculosis H37Rv
Format: cell-based
Conditions: Mycobacterium tuberculosis, 168 h, read-out: M. tuberculosis MIC
[1] = H37Rv, MABA, 7H12 media, 7 days at 37° C., MIC = lowest concentration reducing fluorescence by 90% relative to controls

SMILES | MIC [1] [µg/mL] | MIC [µg/mL]
COc1cc(C(O)(CCN(C)C)C(c2ccc(C)s2)c2cc3cc(C#N)ccc3nc2OC)cc(OC)n1 (centres unmarked) [Example 75, 3-(2-(2,6-Dimethoxypyridin-4-yl)-4-(dimethylamino)-2-hydroxy-1-(5-methylthiophen-2-yl)butyl)-2-methoxyquinoline-6-carbonitrile] | 0.19 (≈ 0.357 µM) | –
COc1cc(C(O)(CCN(C)C)C(c2cc3cc(C#N)ccc3nc2OC)c2cccc(OC)c2F)cc(SC)n1 (centres unmarked) [Example 87, 3-(4-(Dimethylamino)-1-(2-fluoro-3-methoxyphenyl)-2-hydroxy-2-(2-methoxy-6-(methylthio)pyridin-4-yl)butyl)-2-methoxyquinoline-6-carbonitrile] | 0.02 (≈ 0.0347 µM) | –
COc1cc(C(O)(CCN(C)C)C(c2cccc(C)c2)c2cc3cc(Br)ccc3nc2OC)cc(OC)n1 (centres unmarked) [Example 1, 1-(6-Bromo-2-methoxyquinolin-3-yl)-2-(2,6-dimethoxypyridin-4-yl)-4-(dimethylamino)-1-(m-tolyl)butan-2-ol] | < 0.02 | –
COc1nc2ccc(Br)cc2cc1C(c1ccccc1)C(O)(CCN(C)C)c1cccc2ccsc12 (centres unmarked) [Example 15, 2-(Benzo[b]thiophen-7-yl)-1-(6-bromo-2-methoxyquinolin-3-yl)-4-(dimethylamino)-1-phenylbutan-2-ol] | – | 0.02 (≈ 0.0356 µM)
COc1cc(C(O)(CCN(C)C)C(c2cc3cc(Br)ccc3nc2OC)c2cccc3c2OCCO3)cc(OC(F)F)n1 (centres unmarked) [Example 58, 1-(6-Bromo-2-methoxyquinolin-3-yl)-2-(2-(difluoromethoxy)-6-methoxypyridin-4-yl)-1-(2,3-dihydrobenzo[b][1,4]dioxin-5-yl)-4-(dimethylamino)butan-2-ol] | < 0.01 | –
